{"source": "patent US20210060121A1", "about": "“NOVEL ANTIBIOTICS AND METHODS OF USING THEM” (priority 2018, published 2021)", "key": {"MRSA SA11": {"tested_on": "MRSA SA11", "assay_type": "cell-based, Staphylococcus aureus", "procedure": "(§1) Susceptibility to teixobactin and its analogues was tested on the selected Gram-positive strains using Tecan Freedom EVO high-throughput automated platform, following the standard broth dilution method as described by the Clinical and Laboratory Standards Institute ^3. MICS were determined according to CLSI guideline."}, "MRSA SA86": {"tested_on": "MRSA SA86", "assay_type": "cell-based, Staphylococcus aureus", "procedure": "as §1"}, "MRSA SA88": {"tested_on": "MRSA SA88", "assay_type": "cell-based, Staphylococcus aureus", "procedure": "as §1"}, "MRSA(SA11I4)": {"tested_on": "MRSA(SA11I4)", "assay_type": "cell-based, Staphylococcus aureus", "procedure": "as §1"}, "SA (ATCC29213)": {"tested_on": "SA (ATCC29213)", "assay_type": "cell-based, Staphylococcus aureus", "procedure": "as §1"}, "Enterococcus ATCCET": {"tested_on": "Enterococcus ATCCET", "assay_type": "cell-based", "procedure": "as §1"}, "Enterococcus ET60": {"tested_on": "Enterococcus ET60", "assay_type": "cell-based", "procedure": "as §1"}, "Enterococcus ET6": {"tested_on": "Enterococcus ET6", "assay_type": "cell-based", "procedure": "as §1"}, "[1]": {"tested_on": "Streptococcus faecalis SF", "assay_type": "cell-based", "procedure": "as §1"}, "MRSA and SA strains": {"tested_on": "MRSA and SA strains", "test": "MIC, summary over S. aureus strains", "assay_type": "cell-based, Staphylococcus aureus", "conditions": "against MRSA and SA strains; Table 2", "procedure": "as §1"}, "[2]": {"tested_on": "Streptococcus faecalis and Enterococcus strains", "test": "MIC, text summary over Streptococcus faecalis and Enterococcus", "assay_type": "cell-based", "conditions": "against Streptococcus faecalis and Enterococcus strains; Table 2", "procedure": "as §1"}}}
{"smiles": "CC[C@@H](C)[C@@H](NC(=O)[C@@H](CCC(N)=O)NC(=O)[C@@H](NC(=O)[C@@H](NC(=O)[C@@H](Cc1ccccc1)NC)[C@@H](C)CC)[C@@H](C)CC)C(=O)N[C@H](C(=O)N[C@@H](CO)C(=O)N[C@H]1C(=O)N[C@@H](C)C(=O)N[C@@H](C2CCCCC2)C(=O)N[C@@H]([C@@H](C)CC)C(=O)O[C@H]1C)[C@@H](C)CC", "note": "[T88]", "values": [{"measurement": "Minimum inhibitory concentration (MIC) MRSA SA11", "setting": "MRSA SA11", "value": 4, "unit": "µg/mL"}, {"measurement": "Minimum inhibitory concentration (MIC) MRSA SA86", "setting": "MRSA SA86", "value": 4, "unit": "µg/mL"}, {"measurement": "Minimum inhibitory concentration (MIC) MRSA SA88", "setting": "MRSA SA88", "value": 4, "unit": "µg/mL"}, {"measurement": "Minimum inhibitory concentration (MIC) MRSA(SA11I4)", "setting": "MRSA(SA11I4)", "value": 8, "unit": "µg/mL"}, {"measurement": "Minimum inhibitory concentration (MIC) SA (ATCC29213)", "setting": "SA (ATCC29213)", "value": 4, "unit": "µg/mL"}, {"measurement": "Minimum inhibitory concentration (MIC) Enterococcus ATCCET", "setting": "Enterococcus ATCCET", "value": 2, "unit": "µg/mL"}, {"measurement": "Minimum inhibitory concentration (MIC) Enterococcus ET60", "setting": "Enterococcus ET60", "value": 1, "unit": "µg/mL"}, {"measurement": "Minimum inhibitory concentration (MIC) Enterococcus ET6", "setting": "Enterococcus ET6", "value": 2, "unit": "µg/mL"}, {"measurement": "Minimum inhibitory concentration (MIC) Streptococcus faecalis SF", "setting": "[1]", "value": 1, "unit": "µg/mL"}, {"measurement": "Activities, times lower than teixobactin", "setting": "MRSA and SA strains", "value": "about 4 times"}, {"measurement": "Activities compared with teixobactin", "setting": "[2]", "value": "better than teixobactin"}]}
